Data as given in publication PMC3632285 (Journal of controlled release : official journal of the …, 2013).

Assays:
[1] = system: human airway epithelial cells (Calu-3); assay: MTT cytotoxicity study in Calu-3 cells; assay type: cell-based; details: 0.1% w/v, positive control, cell line not specified in the sentence (Fig. 6A)
[2] = In-vitro drug release in dialysis cassettes, PBS pH 7.4, 37°C; assay type: physicochemical; details: plain drug control in dialysis cassette, data not shown
[3] = system: monocrotaline (MCT)-induced PAH rats; assay: Hemodynamic studies in monocrotaline; assay type: in vivo, Sprague-Dawley rats; details: 3 mg/kg
[4] = cited from earlier work
[5] = various storage conditions; cited from earlier work
PAH patients = details: dose of 30 or 40 mg; cited from earlier work
in vivo = details: male, Sprague-Dawley, rat, 10 mg/kg

Row | SMILES | Cell viability [1] [%] | Drug released in the media [2] [%] | Decrease in MPAP (maximal) ([3]; intratracheal) [%] | Reduction in MSAP ([3]; intratracheal) [%] | Decrease in MPAP (maximal) ([3]; intravenous) [%] | Duration of pulmonary vasodilatory effects (15% reduction in MPAP as baseline) ([3]; intravenous) [min] | Reduction in MSAP ([3]; intravenous) [%] | Duration of pulmonary vasodilatory effects (15% reduction in MPAP as baseline) ([3]; pulmonary (intratracheal)) [min] | pKa [4] | Time over which the drug is stable [5] | Effect on MPAP in PAH patients (PAH patients) | bioavailability (in vivo; Bioavailability (relative)) [%] | AUC(0-t) (in vivo; inhaled or intranasal) [ng·h/mL] | Cmax (in vivo; inhaled or intranasal) [ng/mL] | AUC(0-t) (in vivo; iv) [ng·h/mL] | Cmax (in vivo; iv) [ng/mL]
1 | CCCCCCCCCCCCOS(=O)(=O)[O-].[Na+] [SDS, sodium dodecyl sulfate] | 15 |  |  |  |  |  |  |  |  |  |  |  |  |  |  | 
2 | O=S(=O)(c1cccc2cnccc12)N1CCCNCC1 [fasudil] |  | 100 | 38.3±7.3 | 38.1±10.8 | 45.6±17.0 | 50.0 ± 10.4 | 45.6±8.4 | 60.0 ± 15.3 | 9.727 | ~ 24 weeks | effective in reducing MPAP | ~40 | 2.33 | 66.2 ± 13.6 | 5.71 | 298 ± 10
